Experimental data reported in patent publication US12239643B2, “Therapeutic agent for inflammatory diseases, autoimmune diseases, fibrotic diseases, and cancer diseases” (MEIJI SEIKA PHARMA CO., LTD., priority 2018, dated 2025).
Read-outs that look alike come from different tables or passages of the source.

Test system: PDE4
Experiment: Evaluation of PDE4 inhibitory activity, scintillation proximity assay
Format: biochemical
Details: scintillation proximity assay
Protocol: The BDE4 inhibitory activity was measured using scintillation proximity assay (SPA) as follows. First, a test compound dissolved in dimethyl sulfoxide was diluted 1:10 in reaction buffer solution which contained 50 mM of Tris-HCl with pH 7.4, 8.3 mM of MgCl2, 1.7 mM of EGTA, and 3 mg/mL of bovine serum albumin (BSA). Then, 10 μL of the diluted solution was added in a 96-well assay plate. Moreover, 50 μL of PDE4 (enzyme preparation) diluted 1:375 in the reaction buffer solution was added, and then 40 μL of [2,8-^3H]-adenosine-3′,5′-cyclic phosphate triethylammonium salt diluted 1:1000 in the reaction buffer solution was added. The mixture was allowed to stand at room temperature for 120 minutes. Thereafter, […] of RNA binding YSi-SPA beads suspension containing ZnSO4 was added and the mixture was allowed to stand at room temperature for 15 minutes, followed by adsorption of the enzyme reaction product to the beads. After that, the radioactivity was measured using a liquid scintillation counter for a 96-well plate. The mixture without the enzyme preparation added but only the reaction buffer solution added is a blank, and the mixture with the enzyme preparation added and only dimethyl sulfoxide added instead of the test compound is a control.
In addition, the PDE4 inhibitory activity (concentration that inhibits PDE4 activity by 50%=concentration for the inhibition rate of 50% (IC50)) of the test compound was calculated from the inhibition curves based on the inhibition rates for various concentrations of the test compound.

[1] = read-out: PDE4 Inhibitory Activity (Evaluation 1; concentration for the inhibition rate of 50%)
[2] = class symbols of Evaluation 1, read-out: PDE4 Inhibitory Activity (concentration for the inhibition rate of 50%, IC50), Evaluation 1

| Compound | IC50 [1] | IC50 [2] |
| --- | --- | --- |
| COCCOC(c1ccc(-c2nccs2)c2oc(N3CC4CC(C3)N4)nc12)C(F)(F)F (stereo not shown) [Example 229, 2-(3,6-Diazabicyclo[3.1.1]heptan-3-yl)-7-(thiazol-2-yl)-4-(2,2,2-trifluoro-1-(2-methoxyethoxy)ethyl)benzo[d]oxazole] | < 100 nM |  |
| C=CC(F)(F)Oc1ccc(-c2nccs2)c2oc(N3CC4CC(C3)N4)nc12 [Example 351, 2-(3,6-Diazabicyclo[3.1.1]heptan-3-yl)-4-((1,1-difluoroallyl)oxy)-7-(thiazol-2-yl)benzo[d]oxazole] | < 100 nM |  |
| COC(C)c1cc(-c2nccs2)c2oc(N3CC4CCC(C3)N4)nc2c1OC(F)(F)F (stereo not shown) [Example 210, 2-(3,8-Diazabicyclo[3.2.1]octan-3-yl)-5-(1-methoxyethyl)-7-(thiazol-2-yl)-4-(trifluoromethoxy)benzo[d]oxazole] | < 100 nM |  |
| CC(C)(O)COC(c1ccc(-c2cscn2)c2oc(N3CC4CC(C3)N4)nc12)C(F)(F)F (stereo not shown) [Example 284, 1-(1-(2-(3,6-Diazabicyclo[3.1.1]heptan-3-yl)-7-(thiazol-4-yl)benzo[d]oxazol-4-yl)-2,2,2-trifluoroethoxy)-2-methylpropan-2-ol] | < 100 nM |  |
| CSc1cc(-c2nccs2)c2oc(N3CC4CCC(C3)N4)nc2c1 [Example 39, 2-(3,8-Diazabicyclo[3.2.1]octan-3-yl)-5-(methylthio)-7-(thiazol-2-yl)benzo[d]oxazole] |  | < 100 nM |
| FC(F)(F)Oc1ccc(-c2nccs2)c2oc(N3CC4CCC(C3)N4)nc12 [Example 28, 2-(3,8-Diazabicyclo[3.2.1]octan-3-yl)-7-(thiazol-2-yl)-4-(trifluoromethoxy)benzo[d]oxazole] |  | < 100 nM |
| OC1CCC(Oc2ccc(-c3nccs3)c3oc(N4CC5CC(C4)N5)nc23)CC1 (stereo not shown) [Example 305, 4-((2-(3,6-Diazabicyclo[3.1.1]heptan-3-yl)-7-(thiazol-2-yl)benzo[d]oxazol-4-yl)oxy)cyclohexan-1-ol] | < 100 nM |  |
| CC(O)(c1cc(-c2nccs2)c2oc(N3CC4CC(C3)N4)nc2c1OC(F)(F)F)C(F)(F)F (stereo not shown) [Example 216, 2-(2-(3,6-Diazabicyclo[3.1.1]heptan-3-yl)-7-(thiazol-2-yl)-4-(trifluoromethoxy)benzo[d]oxazol-5-yl)-1,1,1-trifluoropropan-2-ol] | < 100 nM |  |
| CCOC(=O)c1cc(-c2nccs2)c2oc(N3CC4CC(C3)N4)nc2c1OC(F)(F)F [Example 187, Ethyl 2-(3,6-diazabicyclo[3.1.1]heptan-3-yl)-7-(thiazol-2-yl)-4-(trifluoromethoxy)benzo[d]oxazole-5-carboxylate] | < 100 nM |  |
| CSc1ccc(-c2nccs2)c2oc(N3CC4CC(C3)N4)nc12 [Example 345, 2-(3,6-Diazabicyclo[3.1.1]heptan-3-yl)-4-(methylthio)-7-(thiazol-2-yl)benzo[d]oxazole] | < 100 nM |  |
| c1csc(-c2ccc(OC3CCC3)c3nc(N4CC5CCC(C4)N5)oc23)n1 [Example 81, 2-(3,8-Diazabicyclo[3.2.1]octan-3-yl)-4-cyclobutoxy-7-(thiazol-2-yl)benzo[d]oxazole] |  | < 100 nM |
| CC(O)(O)C(F)(F)Oc1ccc(-c2nccs2)c2oc(N3CC4CC(C3)N4)nc12 [Example 377, 1-((2-(3,6-Diazabicyclo[3.1.1]heptan-3-yl)-7-(thiazol-2-yl)benzo[d]oxazol-4-yl)oxy)-1,1-difluoropropane-2,2-diol] | < 100 nM |  |
| COC(c1ccc(-c2nccs2)c2oc(N3CC4CC(C3)N4)nc12)C(F)F (stereo not shown) [Example 130, 2-(3,6-Diazabicyclo[3.1.1]heptan-3-yl)-4-(2,2-difluoro-1-methoxyethyl)-7-(thiazol-2-yl)benzo[d]oxazole] |  | < 100 nM |
| OCc1ccc(-c2nccs2)c2oc(N3CC4CC(C3)N4)nc12 [Example 133, (2-(3,6-Diazabicyclo[3.1.1]heptan-3-yl)-7-(thiazol-2-yl)benzo[d]oxazol-4-yl)methanol] |  | < 100 nM |
| Oc1ccc(-c2nccs2)c2oc(N3CC4CCC(C3)N4)nc12 [Example 78, 2-(3,8-Diazabicyclo[3.2.1]octan-3-yl)-7-(thiazol-2-yl)benzo[d]oxazol-4-ol] |  | < 100 nM |
| CC(=O)N(C)c1cc(-c2nccs2)c2oc(N3CC4CCC(C3)N4)nc2c1 [Example 101, N-(2-(3,8-diazabicyclo[3.2.1]octan-3-yl)-7-(thiazol-2-yl)benzo[d]oxazol-5-yl)-N-methylacetamide] |  | < 100 nM |
| NS(=O)(=O)c1ccc(-c2nccs2)c2oc(N3CC4CC(C3)N4)nc12 [Example 396, 2-(3,6-Diazabicyclo[3.1.1]heptan-3-yl)-7-(thiazol-2-yl)benzo[d]oxazole-4-sulfonamide] | < 100 nM |  |

| Compound | IC50 [1] | IC50 [2] |
| --- | --- | --- |
| CCOC(=O)c1ccc(-c2nccs2)c2oc(N3CC4CCC(C3)N4)nc12 [Example 112, Ethyl 2-(3,8-diazabicyclo[3.2.1]octan-3-yl)-7-(thiazol-2-yl)benzo[d]oxazole-4-carboxylate] |  | < 100 nM |
| OC(c1cc(-c2nccs2)c2oc(N3CC4CC(C3)N4)nc2c1OC(F)(F)F)C(F)F (stereo not shown) [Example 293, 1-(2-(3,6-Diazabicyclo[3.1.1]heptan-3-yl)-7-(thiazol-2-yl)-4-(trifluoromethoxy)benzo[d]oxazol-5-yl)-2,2-difluoroethan-1-ol] | < 100 nM |  |
| CC(C)(O)CC(F)(F)Oc1ccc(-c2nccs2)c2oc(N3CC4CC(C3)N4)nc12 [Example 295, 4-((2-(3,6-Diazabicyclo[3.1.1]heptan-3-yl)-7-(thiazol-2-yl)benzo[d]oxazol-4-yl)oxy)-4,4-difluoro-2-methylbutan-2-ol] | < 100 nM |  |
| CC(C)c1cc(-c2nccs2)c2oc(N3CC4CCCC(C3)N4)nc2c1 [Example 24, 2-(3,9-Diazabicyclo[3.3.1]nonan-3-yl)-5-isopropyl-7-(thiazol-2-yl)benzo[d]oxazole] |  | < 100 nM |
| N#CC1CC(Oc2ccc(-c3nccs3)c3oc(N4CC5CC(C4)N5)nc23)C1 (stereo not shown) [Example 266, 3-((2-(3,6-Diazabicyclo[3.1.1]heptan-3-yl)-7-(thiazol-2-yl)benzo[d]oxazol-4-yl)oxy)cyclobutane-1-carbonitrile] | < 100 nM |  |
| CN(C)S(=O)(=O)c1ccc(-c2nccs2)c2oc(N3CC4CC(C3)N4)nc12 [Example 388, 2-(3,6-Diazabicyclo[3.1.1]heptan-3-yl)-N,N-dimethyl-7-(thiazol-2-yl)benzo[d]oxazole-4-sulfonamide] | < 100 nM |  |
| OC(O)(c1cc(-c2nccs2)c2oc(N3CC4CCCC(C3)N4)nc2c1)C(F)(F)F [Example 156, 1-(2-(3,9-Diazabicyclo[3.3.1]nonan-3-yl)-7-(thiazol-2-yl)benzo[d]oxazol-5-yl)-2,2,2-trifluoroethane-1,1-diol] |  | < 100 nM |
| OCc1cc(-c2nccs2)c2oc(N3CC4CCC(C3)N4)nc2c1C(F)(F)F [Example 170, (2-(3,8-Diazabicyclo[3.2.1]octan-3-yl)-7-(thiazol-2-yl)-4-(trifluoromethyl)benzo[d]oxazol-5-yl)methanol] |  | < 100 nM |
| O=C(NCc1ccccc1)c1ccc(-c2nccs2)c2oc(N3CC4CC(C3)N4)nc12 [Example 361, N-benzyl-2-(3,6-diazabicyclo[3.1.1]heptan-3-yl)-7-(thiazol-2-yl)benzo[d]oxazole-4-carboxamide] | < 100 nM |  |
| COCCOc1cc(-c2nccs2)c2oc(N3CC4CCC(C3)N4)nc2c1 [Example 69, 2-(3,8-Diazabicyclo[3.2.1]octan-3-yl)-5-(2-methoxyethoxy)-7-(thiazol-2-yl)benzo[d]oxazole] |  | < 100 nM |
| CC(O)COC(c1ccc(-c2nccs2)c2oc(N3CC4CC(C3)N4)nc12)C(F)(F)F (stereo not shown) [Example 261, 1-(1-(2-(3,6-Diazabicyclo[3.1.1]heptan-3-yl)-7-(thiazol-2-yl)benzo[d]oxazol-4-yl)-2,2,2-trifluoroethoxy)propan-2-ol] | < 100 nM |  |
| CCOC(=O)c1ccc(-c2nccs2)c2oc(N3CC4CC(C3)N4)nc12 [Example 113, ethyl 2-(3,6-diazabicyclo[3.1.1]heptan-3-yl)-7-(thiazol-2-yl)benzo[d]oxazole-4-carboxylate] |  | < 100 nM |
| CSc1cc(-c2nccs2)c2oc(N3CC4CCCC(C3)N4)nc2c1 [Example 41, 2-(3,9-Diazabicyclo[3.3.1]nonan-3-yl)-5-(methylthio)-7-(thiazol-2-yl)benzo[d]oxazole] |  | < 100 nM |
| CC(C)(O)C1CC(Oc2ccc(-c3nccs3)c3oc(N4CC5CC(C4)N5)nc23)C1 (stereo not shown) [Example 267, 2-(3-((2-(3,6-Diazabicyclo[3.1.1]heptan-3-yl)-7-(thiazol-2-yl)benzo[d]oxazol-4-yl)oxy)cyclobutyl)propan-2-ol] | < 100 nM |  |
| CCOC(=O)c1cc(-n2cccn2)c2oc(N3CC4CC(C3)N4)nc2c1 [Example 91, Ethyl 2-(3,6-diazabicyclo[3.1.1]heptan-3-yl)-7-(1H-pyrazol-1-yl)benzo[d]oxazole-5-carboxylate] |  | > 1000 nM |
| FC(F)(F)c1c(Cl)cc(-n2cccn2)c2oc(N3CC4COCC(C3)N4)nc12 [Example 18, 7-(5-Chloro-7-(1H-pyrazol-1-yl)-4-(trifluoromethyl)benzo[d]oxazol-2-yl)-3-oxa-7,9-diazabicyclo[3.3.1]nonane] |  | 100 to 1000 nM |
| COc1cc(-c2nccs2)c2oc(N3CC4CCCC(C3)N4)nc2c1 [Example 62, 2-(3,9-Diazabicyclo[3.3.1]nonan-3-yl)-5-methoxy-7-(thiazol-2-yl)benzo[d]oxazole] |  | < 100 nM |
